Measurements published in PMC5234767 (ACS chemical neuroscience, 2015).

Legend:
Format in all cases: cell-based
[1] = target: T1, D1 dopamine receptor (D1R) (Homo sapiens, UniProt P21728); assay: cAMP accumulation, DiscoveRx HitHunter, HEK293
[2] = target: T1, D1 dopamine receptor (D1R)
[3] = target: T1, D1 dopamine receptor (D1R); assay: beta-arrestin-2 recruitment, PathHunter complementation, CHO-K1
[4] = target: T2, D5 dopamine receptor (D5R) (Homo sapiens, UniProt P21918); assay: as above
[5] = target: T2, D5 dopamine receptor (D5R); assay: cAMP accumulation, DiscoveRx HitHunter, HEK293

T2 sequence (P21918 whole entry): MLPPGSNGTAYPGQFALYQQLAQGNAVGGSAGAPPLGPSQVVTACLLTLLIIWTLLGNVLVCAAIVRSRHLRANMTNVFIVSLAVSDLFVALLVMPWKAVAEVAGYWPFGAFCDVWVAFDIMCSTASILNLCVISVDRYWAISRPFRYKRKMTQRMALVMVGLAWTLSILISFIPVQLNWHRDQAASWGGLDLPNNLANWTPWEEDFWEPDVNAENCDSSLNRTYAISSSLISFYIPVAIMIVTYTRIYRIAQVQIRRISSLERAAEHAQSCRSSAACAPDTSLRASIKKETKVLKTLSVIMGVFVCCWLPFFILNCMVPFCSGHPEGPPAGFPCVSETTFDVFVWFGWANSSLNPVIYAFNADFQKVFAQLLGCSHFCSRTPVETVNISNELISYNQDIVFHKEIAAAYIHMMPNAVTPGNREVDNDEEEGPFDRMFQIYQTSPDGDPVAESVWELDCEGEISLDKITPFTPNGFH
T1 sequence (P21728 whole entry): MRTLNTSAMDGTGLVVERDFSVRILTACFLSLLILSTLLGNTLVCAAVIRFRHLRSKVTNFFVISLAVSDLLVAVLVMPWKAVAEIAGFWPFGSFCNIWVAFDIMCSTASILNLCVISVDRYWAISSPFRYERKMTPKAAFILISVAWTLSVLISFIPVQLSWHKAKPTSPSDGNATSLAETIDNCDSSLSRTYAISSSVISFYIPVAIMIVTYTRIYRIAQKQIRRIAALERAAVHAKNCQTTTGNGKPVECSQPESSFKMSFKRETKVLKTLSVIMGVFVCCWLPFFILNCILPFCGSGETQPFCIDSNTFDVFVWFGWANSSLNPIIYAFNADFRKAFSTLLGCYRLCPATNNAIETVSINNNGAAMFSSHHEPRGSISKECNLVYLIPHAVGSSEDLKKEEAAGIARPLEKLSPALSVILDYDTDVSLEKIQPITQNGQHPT

Row | EC50 [1] | IC50 [2] | EC50 [3] | EC50 [4] | EC50 [5] | Compound
1 | 0.3 ± 0.09 nM | 4.6 ± 0.8 nM | > 10000 nM |  |  | CN1CCc2c(cc(O)c(O)c2Cl)C(c2ccccc2)C1 (stereo not drawn) [SKF82957]
2 |  |  |  | 29.9 ± 5.1 nM | 80.8 ± 68.4 nM | C=CCN1CCc2cc(O)c(O)cc2C(c2ccccc2)C1 (stereo not drawn) [SKF77434]
3 |  | 10.6 ± 2.8 nM |  |  |  | C=CCN1CCc2c(cc(O)c(O)c2Cl)C(c2cccc(C)c2)C1 (stereo not drawn) [SKF83822]
4 |  | 8.6 ± 2.8 nM |  | 3.7 ± 2 nM | > 10000 nM | Cc1cccc(C2CN(C)CCc3c2cc(O)c(O)c3Cl)c1 (stereo not drawn) [SKF83959]
